From publication PMC3228903 (The FEBS journal, 2011)
Changes are numbered by the printed parent chain. Read-outs that look alike come from different tables or passages of the source.

Key:
[1] = biological target: T1, MAO B Ile199Ala-Tyr326Ala (Homo sapiens, UniProt P27338, I199A/Y326A); format: biochemical
T1 sequence (P27338 1-520 I199A/Y326A): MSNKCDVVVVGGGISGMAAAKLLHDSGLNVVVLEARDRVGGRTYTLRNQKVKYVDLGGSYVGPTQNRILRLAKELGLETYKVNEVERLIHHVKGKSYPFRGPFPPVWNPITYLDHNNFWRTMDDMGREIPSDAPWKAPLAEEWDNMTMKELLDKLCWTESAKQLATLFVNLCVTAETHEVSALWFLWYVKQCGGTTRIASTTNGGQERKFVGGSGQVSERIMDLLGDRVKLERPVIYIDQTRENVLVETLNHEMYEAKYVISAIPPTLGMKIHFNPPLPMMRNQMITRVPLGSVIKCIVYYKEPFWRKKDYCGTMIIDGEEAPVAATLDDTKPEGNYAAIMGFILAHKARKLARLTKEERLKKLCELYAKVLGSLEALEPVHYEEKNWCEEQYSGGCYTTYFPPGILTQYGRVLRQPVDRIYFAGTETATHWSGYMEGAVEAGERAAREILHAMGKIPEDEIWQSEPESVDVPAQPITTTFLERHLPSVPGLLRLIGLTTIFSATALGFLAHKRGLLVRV

WT MAO A = conditions: cited from earlier work; for Ki: WT MAO A
WT MAO B [2] = biological target: T2, WT MAO B (Homo sapiens, UniProt P27338); assay: Steady-state substrate oxidation and pH dependence, WT MAO B; format: biochemical; conditions: pH 7.5
T2 sequence (P27338 1-520): T1 sequence (P27338 1-520 I199A/Y326A) with A199I, A326Y

Ile199Ala MAO B = biological target: T3, Ile199Ala MAO B (Homo sapiens, UniProt P27338, I199A); assay: Steady-state substrate oxidation and pH dependence, Ile199Ala MAO B; format: biochemical
T3 sequence (P27338 1-520 I199A): T1 sequence (P27338 1-520 I199A/Y326A) with A326Y

[3] = biological target: T4, Ile199Ala/Tyr326Ala MAO B (Homo sapiens, UniProt P27338, I199A/Y326A); assay: Steady-state substrate oxidation and pH dependence, Ile199Ala/Tyr326Ala MAO B; format: biochemical
T4 sequence (P27338 1-520 I199A/Y326A): T1 sequence (P27338 1-520 I199A/Y326A)

MAO B Ile199Ala = biological target: T5, MAO B Ile199Ala (Homo sapiens, UniProt P27338, I199A); format: biochemical
T5 sequence (P27338 1-520 I199A): T1 sequence (P27338 1-520 I199A/Y326A) with A326Y

WT MAO B [4] = biological target: T2, WT MAO B; assay: Inhibition of WT MAO B, Ki from initial rates of substrate oxidation; format: biochemical
WT MAO B [5] = biological target: T2, WT MAO B; conditions: pH 7.5; cited from earlier work
[6] = Ile199Ala-Tyr326Ala double mutant
[7] = Ki, Ile199Ala single mutant, pH 7.5
[8] = Ile199Ala-Tyr326Ala double mutant, pH 9.3

## CNC1CCc2ccccc21 (stereo not shown) [methylaminoindane]
[1]
  binding / inhibition in words: Weak binding

## CN(C)c1ccc2nc3ccc(=[N+](C)C)cc-3sc2c1 [Methylene Blue, methylene blue]
[1]; [6]
  binding / inhibition in words: affinity higher than that observed with WT MAO B

## NS(=O)(=O)Cc1noc2ccccc12 [zonisamide]
[1]; [6]
  binding / inhibition in words: no detectable inhibition

## C[C@H](NCc1ccc(OCc2cccc(F)c2)cc1)C(N)=O [Safinamide]
[1]; double mutant relative to WT MAO B
  weaker affinity than WT MAO B: ~ 10 fold

## N[C@@H]1C[C@H]1c1ccccc1 (racemic) [Tranylcypromine]
WT MAO A
  Ki: 19 µM

## O=C1Nc2ccccc2C1=O [Isatin]
WT MAO A
  Ki: 15 µM

## NCCCCc1ccccc1 [Phenylbutylamine, phenylbutylamine]
WT MAO B [2]
  Km: 19 ± 3 µM
  kcat: 1.83 ± 0.083 s⁻¹
Ile199Ala MAO B; I199A, pH 7.5
  Km: 8.9 ± 0.7 µM
  kcat: 2.25 ± 0.05 s⁻¹
[3]; I199A-Y326A, pH 7.5
  Km: 55 ± 2 µM
  kcat: 2.37 ± 0.017 s⁻¹

## CC(C)=CCC/C(C)=C/CC/C(C)=C/CO [Farnesol, trans,trans-farnesol]
MAO B Ile199Ala; [7]
  Ki: 2.7 ± 0.4 µM
[1]
  Ki: 18 ± 3 µM
[1]; [6]
  binding / inhibition in words: weaker binding
WT MAO A; previous work
  binding to human MAO A in words: do not bind

## NCc1ccc(C(F)(F)F)cc1 [p-CF3-benzylamine]
Ile199Ala MAO B; single mutant
  V/K extrapolated for fully deprotonated free enzyme, of WT activity: 33%
[3]; double mutant
  V/K extrapolated for fully deprotonated free enzyme, of WT activity: 24%

## Cc1ccc2c(c1)c1c3n2CCNC3CCC1 (stereo not shown) [Pirlindole, pirlindole]
WT MAO B [4]; WT MAO B, pH 7.5
  Ki: No inhibition
WT MAO B [4]; WT MAO B, pH 7.5, listed as pirlindole
  Ki: neither MAO B nor the Ile199Ala single mutant are inhibited
MAO B Ile199Ala; Ile199Ala single mutant, pH 7.5
  Ki: No inhibition
MAO B Ile199Ala; Ile199Ala single mutant, pH 7.5, listed as pirlindole
  Ki: neither MAO B nor the Ile199Ala single mutant are inhibited
[1]
  Ki: 4.1 ± 0.2 µM
WT MAO A
  Ki: 0.92 ± 0.04 µM

## Cc1nccc2c1[nH]c1ccccc12 [Harmane, harmane]
WT MAO B [4]
  Ki: 140 ± 47 µM
MAO B Ile199Ala
  Ki: 550 ± 50 µM
[1]
  Ki: 165 ± 17 µM
WT MAO A
  Ki: 0.58 ± 0.02 µM

## NCc1ccccc1 [Benzylamine, benzylamine]
Ile199Ala MAO B; single mutant
  V/K extrapolated for fully deprotonated free enzyme, of WT activity: 42%
[3]; I199A-Y326A, pH 7.5
  KM: too high to measure
[3]; I199A-Y326A, pH 7.5, no saturation
  2nd order rate: 2nd order rate =: 0.0106 ±0.0002 μM^−1min^−1
[3]; double mutant
  V/K extrapolated for fully deprotonated free enzyme, of WT activity: ~ 5%

## C(=CCc1ccccc1)Cc1ccccc1 [DPB, 1,4-Diphenyl-2-butene]
MAO B Ile199Ala; [7]
  Ki: 8.1 ± 1.6 µM
[1]; [6]
  binding / inhibition in words: no detectable binding
[1]; [8]
  Ki: no inhibition
WT MAO B [5]
  Ki: 34.5 ± 1.4 µM

## NCCc1ccccc1 [Phenylethylamine, Phenethylamine]
Ile199Ala MAO B; single mutant, pH 7.5
  increase in KM relative to WT enzyme: 4 fold
[3]; double mutant, pH 7.5
  KM value higher than WT enzyme: 75 fold

## NC1CCc2ccccc21 (stereo not shown) [aminoindane]
[1]
  binding / inhibition in words: Weak binding

## C(C=Cc1ccccc1)=Cc1ccccc1 [DPBD, 1,4-Diphenyl-1,3-butadiene]
MAO B Ile199Ala
  Ki: 1 ± 0.03 µM
[1]; [6]
  binding / inhibition in words: no detectable binding
[1]; [8]
  Ki: no inhibition
WT MAO B [5]
  Ki: 7 ± 0.2 µM
